pIC50: −log10 of the molar value.
Experiments:
[1] = tested on: HCMV AD169 clone with mutation in UL86 A1226T; experiment: Susceptibility (IC50) of resistant HCMV AD169 clone A1226T; type: cell-based, Human cytomegalovirus; settings: Human betaherpesvirus 5, read-out: IC 50, A1226T
Description: (§1) The test compounds are employed as 50 millimolar (mM) solutions in dimethyl sulfoxide (DMSO). Ganciclovir®, Foscarnet® and Cidofovir® are used as reference compounds. After addition of in each case 2 μl of the 50, 5, 0.5 and 0.05 mM DMSO stock solutions to 98 μl portions of cell culture medium in row 2 A-H for duplicate determinations, 1:2 dilutions are carried out with 50 μl portions of medium up to row 11 of the 96-well plate. The wells in rows 1 and 12 each contain 50 μl of medium. 150 μl of a suspension of 1×10^4 cells (human prepuce fibroblasts [NHDF]) are then pipetted into each of the wells (row 1=cell control) and, in rows 2-12, a mixture of HCMV-infected and uninfected NHDF cells (M.O.I.=0.001-0.002), i.e. 1-2 infected cells per 1000 uninfected cells. Row 12 (without substance) serves as virus control. The final test concentrations are 250-0.0005 μM. The plates are incubated at 37° C./5% CO2 for 6 days, i.e. until all the cells are infected in the virus controls (100% cytopathogenic effect [CPE]). The wells are then fixed and stained by adding a mixture of formalin and Giemsa's dye (30 minutes), washed with double-distilled water and dried in a drying oven at 50° C. The plates are then assessed visually using an overhead microscope (plaque multiplier from Technomara).
(§2) For this purpose, NHDF cells are seeded in tissue culture vessels. 5×10^3 cells per well are seeded in 96-well plates and infected with cell-free HCMV AD169 with an moi of 0.03. The infections are cultivated under substance pressure which corresponds to 10 times the IC50 of the substance. Preferably, 30-100 96-well plates inoculated as described are made up. […] Finally, viral stocks are produced as described above and frozen. Serial ten-fold dilution of the virus-infected cells or of the cell culture supernatant of the virus-infected cells is followed by determination of the titer on 24-well plates of confluent NHDF cells after vital staining with neutral red. Finally, the susceptibility to various substances (IC50 determination) is determined as described above.
(§3) The HCMVAD169 mutants selected as described above are grown in vitro on human embryonic prepuce fibroblasts (NHDF cells) under substance pressure (10×IC50 HCMVAD169). After infection of the NHDF cells with a multiplicity of infection (M.O.I) of 0.01, the virus-infected cells are harvested 5-10 days later, and the total DNA is isolated from these cells with the aid of established standard methods (e.g. phenol extraction and ethanol precipitation). Qiagen Sequencing Services (Qiagen, Hilden) determined, after amplification of the viral UL86 gene by PCR, the DNA sequence, which was then transcribed into protein sequence. Compared with the initial strain HCMV AD169, the differences shown in table 2 were detectable in the protein sequence of the major capsid protein (UL86) in the resistant viruses. The IC50 values [μM] of various substances on these mutants compared with the initial strain are likewise indicated. (n.d.=not measured). […] Depending on the nature of the substance, certain mutations lead to various extents of resistance.

[2] = tested on: HCMV AD169 clone with mutation in UL86 E1320Q; experiment: Susceptibility (IC50) of resistant HCMV AD169 clone E1320Q; type: cell-based, Human cytomegalovirus; settings: Human betaherpesvirus 5, read-out: IC 50, E1320Q
Description: as §1, §2, §3

[3] = tested on: HCMV AD169 clone with mutation in UL86 V601M; experiment: Susceptibility (IC50) of resistant HCMV AD169 clone V601M; type: cell-based, Human cytomegalovirus; settings: Human betaherpesvirus 5, read-out: IC 50, V601M
Description: as §1, §2, §3

[4] = tested on: HCMV AD169 clone with mutation in UL86 P586T; experiment: Susceptibility (IC50) of resistant HCMV AD169 clone P586T; type: cell-based, Human cytomegalovirus; settings: Human betaherpesvirus 5, read-out: IC 50, P586T
Description: as §1, §2, §3

[5] = tested on: Human cytomegalovirus (HCMV); experiment: Anti-HCMV cytopathogenicity test; type: cell-based; settings: for pIC50: Human betaherpesvirus 5, 144 h, NHDF cells, 6 days, cytopathogenic effect, read-out: IC50, antiviral activity in vitro; for SI (selectivity index): antiviral activity in vitro
Description: Human cytomegalovirus (HCMV), DavisSmith (ATCC VR807) or AD169 (ATCC VR538) strain, is grown in vitro on human embryonic prepuce fibroblasts (NHDF cells). After the NHDF cells have been infected with a multiplicity of infection (M.O.I.) of 0.01, the virus-infected cells are harvested 5-10 days later and stored in the presence of minimal essential medium (MEM), 10% fetal calf serum (FCS) with 10% DMSO at −80° C. A cell-free stock is produced by removing only the cell culture supernatant and immediately freezing at −80° C. After serial ten-fold dilutions of the virus-infected cells or of the cell culture supernatant of the virus-infected cells (cell-free virus), the titer is determined on 24-well plates of confluent NHDF cells after vital staining with neutral red.
as §1

[6] = tested on: HCMV AD169 clone with mutation in UL86 D441N; experiment: Susceptibility (IC50) of resistant HCMV AD169 clone D441N; type: cell-based, Human cytomegalovirus; settings: Human betaherpesvirus 5, read-out: IC 50, D441N
Description: as §1, §2, §3

[7] = tested on: HCMV AD169 clone with mutation in UL86 D563N; experiment: Susceptibility (IC50) of resistant HCMV AD169 clone D563N; type: cell-based, Human cytomegalovirus; settings: Human betaherpesvirus 5, read-out: IC 50, D563N
Description: as §1, §2, §3

[8] = tested on: HCMV AD169 clone with mutation in UL86 P1189T; experiment: Susceptibility (IC50) of resistant HCMV AD169 clone P1189T; type: cell-based, Human cytomegalovirus; settings: Human betaherpesvirus 5, read-out: IC 50, P1189T
Description: as §1, §2, §3

[9] = tested on: HCMV AD169 clone with mutation in UL86 A689T; experiment: Susceptibility (IC50) of resistant HCMV AD169 clone A689T; type: cell-based, Human cytomegalovirus; settings: Human betaherpesvirus 5, read-out: IC 50, A689T
Description: as §1, §2, §3

[10] = tested on: HCMV AD169 clone with mutation in UL86 R682H; experiment: Susceptibility (IC50) of resistant HCMV AD169 clone R682H; type: cell-based, Human cytomegalovirus; settings: Human betaherpesvirus 5, read-out: IC 50, R682H
Description: as §1, §2, §3

[11] = tested on: HCMV AD169 clone with mutation in UL86 Q1223R; experiment: Susceptibility (IC50) of resistant HCMV AD169 clone Q1223R; type: cell-based, Human cytomegalovirus; settings: Human betaherpesvirus 5, read-out: IC 50, Q1223R
Description: as §1, §2, §3

[12] = tested on: wild-type HCMV AD169; experiment: Susceptibility (IC50) of HCMV AD169 wild-type; type: cell-based, Human cytomegalovirus; settings: Human betaherpesvirus 5, NHDF cells, read-out: IC 50, Wild-type
Description: as §1, §2, §3

[13] = tested on: HCMV AD169 clone with mutation in UL86 R435C; experiment: Susceptibility (IC50) of resistant HCMV AD169 clone R435C; type: cell-based, Human cytomegalovirus; settings: Human betaherpesvirus 5, read-out: IC 50, R435C
Description: as §1, §2, §3

[14] = tested on: HCMV AD169 clone with mutation in UL86 K1338N; experiment: Susceptibility (IC50) of resistant HCMV AD169 clone K1338N; type: cell-based, Human cytomegalovirus; settings: Human betaherpesvirus 5, read-out: IC 50, K1338N
Description: as §1, §2, §3

Row | SMILES | pIC50 [1] | pIC50 [2] | pIC50 [3] | pIC50 [4] | pIC50 [5] | SI (selectivity index) [5] | pIC50 [6] | pIC50 [7] | pIC50 [8] | pIC50 [9] | pIC50 [10] | pIC50 [11] | pIC50 [12] | pIC50 [13] | pIC50 [14] | melting point
1 | CC(=O)Nc1ccc(NC(=O)Nc2ccc(F)c(Cl)c2)cc1 [Example 3, N-[4-({[(3-Chloro-4-fluorophenyl)amino]carbonyl}amino)phenyl]acetamide] | < 4.70 | < 4.70 | < 4.70 | < 4.70 | 6.30 | 40 | < 4.70 | < 4.70 | < 4.70 | < 4.70 | < 4.70 | < 4.70 | 6.30 | < 4.70 | < 4.70 | 
2 | CCCCS(=O)(=O)Nc1cccc(NC(=O)Nc2ccc(F)c(Cl)c2)c1 [Example 5, N-[3-({[(3-Chloro-4-fluorophenyl)amino]carbonyl}amino)phenyl]-1-butanesulfonamide] |  | 5.05 | 5.82 | 6.10 | 6.85 | 70 |  | 5.85 |  | 6.40 |  | 5.85 | 6.85 | 5.22 | < 5.05 | 
3 | CC(C)n1c(-c2cccc(NC(=O)Nc3ccc(F)c(Cl)c3)c2)n[nH]c1=O [Example 6, 1-(3-Chloro-4-fluorophenyl)-3-[3-(4-isopropyl-5-oxo-4,5-dihydro-1H-[1,2,4]triazol-3-yl)phenyl]urea] |  |  |  |  | 6.40 | 150 |  |  |  |  |  |  |  |  |  | 
4 | O=C(Nc1cccc(-c2n[nH]c(=O)n2C2CCCCC2)c1)Nc1ccc(F)c(Cl)c1 [Example 7, 1-(3-Chloro-4-fluorophenyl)-3-[3-(4-cyclohexyl-5-oxo-4,5-dihydro-1H-[1,2,4]triazol-3-yl)phenyl]urea] |  | 4.62 | 4.92 | 5.12 | 5.82 | 30 |  | 4.82 |  | 5.35 |  | 4.92 | 5.82 | 5.52 | 4.82 | 
5 | Cc1cc(Cl)ccc1NC(=O)Nc1cccc(C2=NNC(=O)C2(C)C)c1 [Example 8, N-(4-Chloro-2-methylphenyl)-N′-[3-(4,4-dimethyl-5-oxo-4,5-dihydro-1H-pyrazol-3-yl)phenyl]urea] |  | < 4.68 | < 4.68 | < 4.68 | 6.22 | 30 |  | < 4.68 |  | < 4.68 |  | < 4.68 | 6.22 | 5.89 | < 4.68 | 226.8 °C
6 | Nc1nc(O)c2ncn(COC(CO)CO)c2n1 [Ganciclovir, reference compound] | 6.00 | 6.00 | 6.00 | 6.00 |  |  | 6.00 | 6.00 | 6.00 | 6.00 | 6.00 | 6.00 | 6.00 | 6.00 | 6.00 | 
